Measured values published in ChEMBL document CHEMBL1201862, “PubChem BioAssay data set” (2004).
Where a name gives a salt, the structure may show the parent alone. The source made the active and inactive calls.

Experiments:
[1] = target: Voltage-dependent T-type calcium channel subunit alpha-1H (Homo sapiens, UniProt O95180); assay type: functional;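 also: channel activity triggered by adding a high calcium stimulation buffer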
Vero [2] = assay: cells; assay type: functional, cell-based; conditions: Chlorocebus sabaeus
[3] = HEp-2 cell cytotoxicity, dose response, cytotoxicity control for RSV inhibitor project, HTS (AID 2410); assay type: functional; conditions: human respiratory syncytial virus
cells [4] = assay: cells
cells [5] = assay type: functional
[6] = THP-1 cell cytotoxicity, dose response, cytotoxicity control for non-replicating M. tuberculosis project (AID 489025); assay type: functional
[7] = target: T1, Heat shock factor protein 1 (Mus musculus, UniProt P38532); assay: inhibition of MG132-induced HSE-luciferase signal, confirmation, cell-based, NIH3T3, luminescence, dose retest (AID 2382); assay type: functional;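 also: NIH3T3 fibroblasts with HSF1-driven luciferase reporter stressed by proteasome inhibitor MG132; luminescence from HSF1-driven luciferase expression after 8 hours of MG132 stress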
T1 sequence (P38532 whole entry): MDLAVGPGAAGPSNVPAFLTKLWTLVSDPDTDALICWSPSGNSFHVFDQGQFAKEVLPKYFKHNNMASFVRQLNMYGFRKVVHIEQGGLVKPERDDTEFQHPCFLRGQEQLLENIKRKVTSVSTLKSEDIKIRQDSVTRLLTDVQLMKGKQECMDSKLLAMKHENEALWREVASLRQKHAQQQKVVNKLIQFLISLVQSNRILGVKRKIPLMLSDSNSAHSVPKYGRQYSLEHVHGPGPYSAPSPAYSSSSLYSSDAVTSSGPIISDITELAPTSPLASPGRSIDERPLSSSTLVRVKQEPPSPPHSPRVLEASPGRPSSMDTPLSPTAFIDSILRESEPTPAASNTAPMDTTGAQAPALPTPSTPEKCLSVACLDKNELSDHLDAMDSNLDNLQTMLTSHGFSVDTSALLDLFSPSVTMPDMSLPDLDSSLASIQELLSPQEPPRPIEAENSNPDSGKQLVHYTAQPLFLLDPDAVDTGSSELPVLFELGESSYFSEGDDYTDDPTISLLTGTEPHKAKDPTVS

[8] = target: Eukaryotic translation initiation factor 4E (Mus musculus, UniProt P63073); assay: eIF4E–eIF4G protein interaction inhibitors, dose response, biochemical, TR-FRET (AID 855); assay type: functional;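 also: potency for disrupting eIF4E binding to eIF4GI seen as loss of FRET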
[9] = target: T2, Short transient receptor potential channel 4 (Mus musculus, UniProt Q9QUQ5); assay: mouse TRPC4 channel inhibitors, dose response, cell-based, HEK293 TRPC4/mu-opioid, Fluo-4 calcium (AID 434942); assay type: functional;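 also: potency of inhibitors blocking the TRPC4 calcium response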
T2 sequence (Q9QUQ5 whole entry): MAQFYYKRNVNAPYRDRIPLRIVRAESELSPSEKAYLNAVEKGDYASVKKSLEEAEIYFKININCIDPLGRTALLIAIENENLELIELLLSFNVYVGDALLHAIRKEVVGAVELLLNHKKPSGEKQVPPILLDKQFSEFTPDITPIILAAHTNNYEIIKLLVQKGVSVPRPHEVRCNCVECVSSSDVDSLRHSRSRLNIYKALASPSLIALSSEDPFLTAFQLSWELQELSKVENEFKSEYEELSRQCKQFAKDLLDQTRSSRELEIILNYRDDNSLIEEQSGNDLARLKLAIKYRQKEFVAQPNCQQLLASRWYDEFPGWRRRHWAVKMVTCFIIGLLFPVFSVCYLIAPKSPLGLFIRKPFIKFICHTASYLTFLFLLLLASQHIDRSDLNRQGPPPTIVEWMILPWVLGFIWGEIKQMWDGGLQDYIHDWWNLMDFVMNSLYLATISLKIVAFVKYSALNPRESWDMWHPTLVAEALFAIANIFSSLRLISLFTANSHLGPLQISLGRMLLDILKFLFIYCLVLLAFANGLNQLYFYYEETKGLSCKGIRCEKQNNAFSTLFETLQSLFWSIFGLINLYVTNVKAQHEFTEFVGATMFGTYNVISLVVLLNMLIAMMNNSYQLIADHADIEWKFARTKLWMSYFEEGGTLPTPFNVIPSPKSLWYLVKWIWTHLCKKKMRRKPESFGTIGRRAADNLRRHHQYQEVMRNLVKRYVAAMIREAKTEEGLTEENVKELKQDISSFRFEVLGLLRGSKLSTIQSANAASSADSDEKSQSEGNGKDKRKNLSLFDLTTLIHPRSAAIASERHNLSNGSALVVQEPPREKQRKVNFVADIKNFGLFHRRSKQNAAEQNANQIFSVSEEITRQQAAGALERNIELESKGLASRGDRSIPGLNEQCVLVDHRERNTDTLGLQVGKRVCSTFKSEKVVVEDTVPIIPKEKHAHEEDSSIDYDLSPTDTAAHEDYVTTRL

Streptokinase A = target: T3, Streptokinase A (Streptococcus pyogenes serotype M1, UniProt P10520); assay: S. pyogenes streptokinase expression inhibitors, potency, dose response, plasminogen activation absorbance, OD405 (AID 1914); assay type: functional, Streptococcus pyogenes M1 GAS;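 also: secreted streptokinase activity via plasminogen activation per viability signal from cell pellet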
T3 sequence (P10520 whole entry): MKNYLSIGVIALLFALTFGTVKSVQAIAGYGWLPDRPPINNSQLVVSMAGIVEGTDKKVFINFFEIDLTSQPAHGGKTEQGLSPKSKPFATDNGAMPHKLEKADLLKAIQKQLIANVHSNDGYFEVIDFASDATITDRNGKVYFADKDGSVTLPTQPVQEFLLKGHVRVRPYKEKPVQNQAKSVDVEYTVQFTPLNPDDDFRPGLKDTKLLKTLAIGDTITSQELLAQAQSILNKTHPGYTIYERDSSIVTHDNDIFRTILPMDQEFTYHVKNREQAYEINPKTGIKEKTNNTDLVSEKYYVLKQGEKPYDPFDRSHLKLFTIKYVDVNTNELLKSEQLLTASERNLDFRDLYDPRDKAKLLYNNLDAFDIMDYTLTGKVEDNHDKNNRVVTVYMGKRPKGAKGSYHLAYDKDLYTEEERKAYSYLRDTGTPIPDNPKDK

Streptococcus = assay: Group A Streptococcus viability loss, dose response, counter-screen for streptokinase expression inhibitor project, luminescence, BacTiterGlo (AID 1915); assay type: functional, organism-based;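 also: potency for reduction of bacterial viability or growth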
[10] = Luminescence Cell-Based Dose Retest to Confirm Inhibitors of Cancer Stem Cells. [Related pubchem assays (depositor defined):AID2717, AID2721]; assay type: functional; conditions: Homo sapiens
[11] = tested on: Streptococcus sp. 'group A'; assay: growth inhibition of control SK(-) GAS strain, dose response, counter-screen for streptokinase expression inhibitor project, luminescence, kanamycin, BacTiterGlo, confirmation (AID 1900); assay type: functional, organism-based
[12] = cytotoxicity in HEK-293T cells, dose response, cytotoxicity control for BCR NF-kB inhibitor project, luminescence, B-cell screen hits (AID 489021); assay type: functional, cell-based;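 also: HEK-293T cells carrying an NF-kB luciferase reporter; cells exposed to compound for about 14 hours before viability readout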
Vero [13] = assay: cells; assay type: functional; conditions: Chlorocebus sabaeus
[14] = target: T4, Replicative DNA helicase DnaB (Mycobacterium tuberculosis, UniProt P9WMR3); assay: DnaB intein splicing inhibitors, dose response, biochemical, cell-free fluorescence (AID 449749); assay type: functional
T4 sequence (P9WMR3 whole entry): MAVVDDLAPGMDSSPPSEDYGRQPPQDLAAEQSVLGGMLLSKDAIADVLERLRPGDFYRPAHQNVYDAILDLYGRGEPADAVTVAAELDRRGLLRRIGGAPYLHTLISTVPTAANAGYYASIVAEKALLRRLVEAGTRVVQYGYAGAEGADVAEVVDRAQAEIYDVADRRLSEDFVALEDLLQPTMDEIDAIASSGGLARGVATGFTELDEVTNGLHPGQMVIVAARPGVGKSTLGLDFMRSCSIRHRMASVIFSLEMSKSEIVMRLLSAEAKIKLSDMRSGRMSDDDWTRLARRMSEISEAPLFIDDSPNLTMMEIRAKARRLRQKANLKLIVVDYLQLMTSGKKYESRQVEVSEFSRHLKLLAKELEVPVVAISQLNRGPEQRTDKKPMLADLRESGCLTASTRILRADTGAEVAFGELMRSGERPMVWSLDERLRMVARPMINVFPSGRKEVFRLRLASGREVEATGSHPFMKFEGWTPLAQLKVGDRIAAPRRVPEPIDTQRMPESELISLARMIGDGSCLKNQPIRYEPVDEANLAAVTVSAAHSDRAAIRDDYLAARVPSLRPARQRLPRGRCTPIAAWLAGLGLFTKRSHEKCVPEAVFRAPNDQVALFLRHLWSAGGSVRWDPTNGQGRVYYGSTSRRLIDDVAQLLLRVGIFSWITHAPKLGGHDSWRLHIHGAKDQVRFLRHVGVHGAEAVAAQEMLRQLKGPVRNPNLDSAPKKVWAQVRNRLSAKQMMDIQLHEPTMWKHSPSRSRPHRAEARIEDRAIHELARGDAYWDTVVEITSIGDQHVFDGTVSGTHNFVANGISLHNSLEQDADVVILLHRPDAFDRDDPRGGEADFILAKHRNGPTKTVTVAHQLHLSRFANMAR

Protein RecA = target: T5, Protein RecA (Mycobacterium tuberculosis, UniProt P9WHJ3); assay: Fluorescence Cell-Free Homogeneous Dose Retest to Identify Inhibitors of RecA-Intein Splicing Activity. [Related pubchem assays (depositor defined):AID2097, AID2223, AID489010, AID492950]; assay type: functional
T5 sequence (P9WHJ3 whole entry): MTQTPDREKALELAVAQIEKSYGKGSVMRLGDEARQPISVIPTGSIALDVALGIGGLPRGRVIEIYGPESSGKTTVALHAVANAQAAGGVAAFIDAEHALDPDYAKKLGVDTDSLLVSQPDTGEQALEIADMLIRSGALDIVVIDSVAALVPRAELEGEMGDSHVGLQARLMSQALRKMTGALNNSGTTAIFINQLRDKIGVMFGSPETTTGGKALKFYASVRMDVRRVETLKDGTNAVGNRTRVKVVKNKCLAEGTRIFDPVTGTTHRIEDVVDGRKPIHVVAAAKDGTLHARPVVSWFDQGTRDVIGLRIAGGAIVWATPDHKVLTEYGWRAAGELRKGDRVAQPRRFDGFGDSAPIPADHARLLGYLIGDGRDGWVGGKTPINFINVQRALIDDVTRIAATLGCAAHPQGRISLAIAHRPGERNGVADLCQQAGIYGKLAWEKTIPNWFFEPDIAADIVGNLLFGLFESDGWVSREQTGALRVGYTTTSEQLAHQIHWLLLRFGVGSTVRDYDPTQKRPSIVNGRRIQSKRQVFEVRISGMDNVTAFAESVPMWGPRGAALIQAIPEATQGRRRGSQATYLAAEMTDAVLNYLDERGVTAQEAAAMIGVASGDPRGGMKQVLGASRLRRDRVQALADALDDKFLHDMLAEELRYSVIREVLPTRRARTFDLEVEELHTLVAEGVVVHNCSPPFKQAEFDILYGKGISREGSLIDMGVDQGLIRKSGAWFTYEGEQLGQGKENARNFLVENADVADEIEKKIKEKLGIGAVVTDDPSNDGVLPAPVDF

[15] = target: T6, Microphthalmia-associated transcription factor (Homo sapiens, UniProt O75030); assay: TRPM1 promoter luciferase signal decrease, dose response, MITF inhibitor project, cell-based, SK-MEL-5, cherry-picked, set 3 (AID 493073); assay type: functional
T6 sequence (O75030 whole entry): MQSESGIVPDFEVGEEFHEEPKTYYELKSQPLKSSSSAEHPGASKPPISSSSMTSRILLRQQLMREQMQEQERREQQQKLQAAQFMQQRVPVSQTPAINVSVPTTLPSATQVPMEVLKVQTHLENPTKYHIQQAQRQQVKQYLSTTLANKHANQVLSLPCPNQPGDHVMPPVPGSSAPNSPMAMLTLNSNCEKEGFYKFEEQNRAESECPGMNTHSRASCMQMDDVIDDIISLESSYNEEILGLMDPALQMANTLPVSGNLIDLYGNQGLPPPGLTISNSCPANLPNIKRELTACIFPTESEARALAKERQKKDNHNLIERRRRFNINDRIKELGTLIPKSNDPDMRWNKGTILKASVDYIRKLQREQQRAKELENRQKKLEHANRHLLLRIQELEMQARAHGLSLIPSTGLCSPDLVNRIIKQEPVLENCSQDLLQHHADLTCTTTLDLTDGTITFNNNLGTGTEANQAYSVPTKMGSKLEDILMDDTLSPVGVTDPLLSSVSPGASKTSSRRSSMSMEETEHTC

Sequence of Voltage-dependent T-type calcium channel subunit alpha-1H (O95180 whole entry): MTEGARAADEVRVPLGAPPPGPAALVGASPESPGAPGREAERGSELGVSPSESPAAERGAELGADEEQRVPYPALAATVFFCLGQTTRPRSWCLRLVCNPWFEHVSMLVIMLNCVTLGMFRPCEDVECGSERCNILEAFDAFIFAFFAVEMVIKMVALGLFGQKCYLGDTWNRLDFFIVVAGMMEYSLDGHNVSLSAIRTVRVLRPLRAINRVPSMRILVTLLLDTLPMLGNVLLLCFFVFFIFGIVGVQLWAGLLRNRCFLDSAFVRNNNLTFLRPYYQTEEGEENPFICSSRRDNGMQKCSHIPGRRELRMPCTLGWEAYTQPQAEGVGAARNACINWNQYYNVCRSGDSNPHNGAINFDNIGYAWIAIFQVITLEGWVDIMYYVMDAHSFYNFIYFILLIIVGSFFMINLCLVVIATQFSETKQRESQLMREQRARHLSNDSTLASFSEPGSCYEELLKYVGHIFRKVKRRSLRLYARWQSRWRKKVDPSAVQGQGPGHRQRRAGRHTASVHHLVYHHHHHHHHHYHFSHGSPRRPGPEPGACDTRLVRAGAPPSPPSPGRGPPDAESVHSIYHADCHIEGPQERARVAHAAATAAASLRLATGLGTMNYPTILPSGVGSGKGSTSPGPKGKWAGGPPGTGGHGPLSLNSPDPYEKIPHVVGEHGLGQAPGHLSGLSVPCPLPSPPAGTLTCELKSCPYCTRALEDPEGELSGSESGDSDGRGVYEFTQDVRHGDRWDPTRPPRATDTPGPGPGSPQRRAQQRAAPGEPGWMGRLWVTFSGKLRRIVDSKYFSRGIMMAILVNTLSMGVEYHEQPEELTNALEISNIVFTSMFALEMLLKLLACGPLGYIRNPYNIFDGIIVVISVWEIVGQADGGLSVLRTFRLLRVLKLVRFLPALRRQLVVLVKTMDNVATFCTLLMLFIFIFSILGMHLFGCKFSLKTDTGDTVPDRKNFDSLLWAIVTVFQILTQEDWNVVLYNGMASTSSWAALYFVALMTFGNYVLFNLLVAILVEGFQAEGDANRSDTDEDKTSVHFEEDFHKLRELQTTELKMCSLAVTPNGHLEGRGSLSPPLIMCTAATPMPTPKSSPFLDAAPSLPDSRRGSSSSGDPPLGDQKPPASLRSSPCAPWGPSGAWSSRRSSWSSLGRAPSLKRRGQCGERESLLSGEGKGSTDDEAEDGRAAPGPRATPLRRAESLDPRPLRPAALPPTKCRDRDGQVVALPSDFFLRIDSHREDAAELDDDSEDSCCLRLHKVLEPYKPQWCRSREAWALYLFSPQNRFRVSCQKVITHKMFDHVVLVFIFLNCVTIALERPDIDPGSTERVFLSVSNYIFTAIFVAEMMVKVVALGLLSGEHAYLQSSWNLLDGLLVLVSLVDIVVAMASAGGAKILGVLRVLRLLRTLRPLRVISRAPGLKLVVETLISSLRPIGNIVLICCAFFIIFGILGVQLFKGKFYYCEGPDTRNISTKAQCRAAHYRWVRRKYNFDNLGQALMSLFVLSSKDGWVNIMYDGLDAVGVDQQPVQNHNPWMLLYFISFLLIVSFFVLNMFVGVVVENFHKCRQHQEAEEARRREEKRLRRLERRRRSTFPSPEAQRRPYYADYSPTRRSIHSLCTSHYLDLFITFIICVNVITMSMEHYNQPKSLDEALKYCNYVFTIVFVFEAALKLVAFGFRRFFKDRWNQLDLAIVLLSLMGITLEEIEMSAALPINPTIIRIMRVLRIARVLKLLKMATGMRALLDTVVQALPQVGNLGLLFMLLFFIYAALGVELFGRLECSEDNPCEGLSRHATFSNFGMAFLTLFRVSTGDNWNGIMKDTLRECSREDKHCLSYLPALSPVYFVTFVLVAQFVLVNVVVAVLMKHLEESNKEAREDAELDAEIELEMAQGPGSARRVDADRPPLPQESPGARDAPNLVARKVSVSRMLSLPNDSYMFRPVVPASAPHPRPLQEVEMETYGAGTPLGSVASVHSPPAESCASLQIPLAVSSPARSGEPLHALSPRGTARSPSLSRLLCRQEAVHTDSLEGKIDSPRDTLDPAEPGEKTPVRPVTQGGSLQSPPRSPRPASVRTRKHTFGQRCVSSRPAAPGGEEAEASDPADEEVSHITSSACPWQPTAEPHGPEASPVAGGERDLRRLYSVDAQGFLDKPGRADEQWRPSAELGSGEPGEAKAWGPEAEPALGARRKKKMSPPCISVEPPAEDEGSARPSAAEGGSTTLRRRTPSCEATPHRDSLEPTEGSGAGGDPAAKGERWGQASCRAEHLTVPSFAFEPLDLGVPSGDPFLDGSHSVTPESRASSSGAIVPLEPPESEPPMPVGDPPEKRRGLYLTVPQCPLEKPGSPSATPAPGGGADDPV
Sequence of Eukaryotic translation initiation factor 4E (P63073 whole entry): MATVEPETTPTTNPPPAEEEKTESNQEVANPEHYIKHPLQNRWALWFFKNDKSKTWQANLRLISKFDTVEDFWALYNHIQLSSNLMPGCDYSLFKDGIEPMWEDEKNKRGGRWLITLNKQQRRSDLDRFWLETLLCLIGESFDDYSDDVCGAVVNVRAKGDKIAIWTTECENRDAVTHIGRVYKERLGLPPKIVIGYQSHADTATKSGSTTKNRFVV

## O=C(Nc1ccc(F)cc1)c1cc(S(=O)(=O)Nc2ccc(F)cc2)cs1
[1]
  EC50: 2.88 µM (active)

## CCOc1ccccc1CNC(=O)c1cc2oc3ccccc3c2n1C
Vero [2]
  IC50: 4.91 µM (active)
[3]
  CC50: 18.7 µM (active)
Cells [4]
  IC50: 9.25 µM (active)

## C#CCSc1nnc(-c2ccc(C)cc2)o1
Cells [5]
  IC50: 26.4 µM (active)
[6]
  CC50: > 40 µM (active)

## O=C1NC(=O)C(CCc2ccncc2)(CCc2ccncc2)C(=O)N1Cc1ccccc1
[7]
  EC50: > 195 µM (not active)
[8]
  IC50: 50 µM (inactive)

## O=C(CSc1nnc(Cc2cccs2)n1-c1ccccc1)NCc1ccc2c(c1)OCO2
[1]
  EC50: 8.23 µM (active)

## COc1cc(CNC2CCCC2)c(Br)cc1OCc1ccccc1
[9]
  EC50: 0.237 µM (active)

## O=C(O)c1ccc(CSc2nc(-c3ccc(Cl)cc3)cc(C(F)(F)F)n2)cc1
Streptokinase A
  EC50: > 150 µM (not active)
Streptococcus
  EC50: 11.7 µM (active)
[9]
  EC50: 5.96 µM (active)
[10]
  AC50: 5.76 µM (active)
[11]
  EC50: 4.41 µM (active)

## COc1ccccc1N1CCN(CC(C)N(C(=O)C2CCCCC2)c2ccccn2)CC1 (stereo not drawn)
[9]
  EC50: 0.335 µM (active)

## CCN1C(=O)c2cccc3c(S(=O)(=O)Nc4ccccn4)ccc1c23
[12]
  IC50: > 80 µM (inactive)

## Cc1cc(-c2csc3ncnc(N4CCN(C)CC4)c23)cc(C)c1C
[9]
  EC50: 1.19 µM (active)

## CC(=O)NC1=C(Nc2ccc(N(C)C)cc2)C(=O)c2ccccc2C1=O
Vero [2]
  IC50: 24.7 µM (active)
[3]
  CC50: 15.3 µM (active)
Vero [13]
  CC50: > 25 µM (active)
Cells [4]
  IC50: 17.5 µM (active)
[14]
  AC50: 34.5 µM (active)
Protein RecA
  EC50: 46.6 µM (active)

## CSc1cccc(NC(=O)CSc2ccccc2)c1
[1]
  EC50: 9.9 µM (active)

## C=CCOc1ccc(/C=C2\SC(=S)N(CCC(=O)O)C2=O)cc1
[7]
  EC50: 5.69 µM (active)
[15]
  AC50: 0.337 µM (active)
[12]
  IC50: > 80 µM (inactive)

## COc1ccc(/C=C2\SC(=O)N(CCCC(=O)Nc3ccc(C(=O)O)cc3)C2=O)cc1OC
[12]
  IC50: > 80 µM (inactive)

## CN(C)CC/C=C1\c2cc(Cl)ccc2Sc2cc(F)c(F)cc21
Vero [13]
  CC50: > 25 µM (active)
Cells [5]
  IC50: 18.2 µM (active)
[6]
  CC50: 38.8 µM (active)

## CCCCOc1cc(C(=O)NCCN(CC)CC)c2ccccc2n1 [DIBUCAINE HYDROCHLORIDE]
[8]
  IC50: 50 µM (inactive)
